One block for each molecule: values may come before it.
What was measured:
Experiment in all cases: fluorescence quenching titration of antibody tryptophan
IgE = type: binding
[1] = biological target: penicillin G specific IgG (IgG^Pen, monoclonal antibody clone P2B9); type: binding, Mus musculus
[2] = biological target: anti-dansyl IgE (IgE^dansyl, clone 27-74); type: binding

Kd (IgE): 1800 ± 300 nM
Molecule: O=C(O)Cc1ccc2ccccc2c1 [Napht, 2-naphteleneacetic acid]

Kd [1]: 20000 ± 4000 nM
Molecule: Benzylpenicilloyl

Kd [2]: 29.9 ± 10 nM
Molecule: dansyl
